Entries after “also recorded” stand apart in the source; their conditions may differ. Read-outs that look alike come from different tables or passages of the source.
How the values were obtained:
[1] = Systemic administration of Mdivi-1, adverse effects; assay type: in vivo
Excerpt: The studies proposed will delineate the role of mito morphology alterations in cardiac-Tx. They will also determine how donor BD impacts IM, and identify an optimum drug delivery strategy for reducing acute post-Tx injury through mito shape manipulation. The opposing roles of mito fission and fusion regulate mito morphology and function. A number of key proteins have been identified which control this process (DRP-1, mito fission protein-1 (Fis-1) and mito fission factor (mff), Mfn1/2, and OPA-1). Given the importance of these proteins for the maintenance of cellular respiration, genetic deletion is most often fatal. However, C57Bl/6 homozygous mito fission factor (Mff)-deficient (Mff^gt−/−) mice are available, as are pharmacological promoters of fusion, M1 and Mdivi-1. […] Using these tools, the inventors will dissect the role of fission and fusion in IRI and rejection in the context of organ Tx. The inventors propose three sub Aims. In SA 2.1, the inventors will determine the impact of mito fission inhibition, and thus fusion promotion, through comparing the effects of IRI and AR of recipients receiving hearts from C57Bl/6 wildtype (wt) or C57Bl/6 homozygous mito fission factor (Mff)-deficient (Mff^gt−/−) donors. In SA 2.2 the inventors will explore the therapeutic potential of donor heart pre-treatment with M1, Mdivi-1, and a combination of both. […]

focal cardiac ischemia = details: non-transplant setting, previous studies, cited from earlier work
[2] = system: sensitized allogeneic CD8+ T-cells cocultured with MCECs; assay: EC/T cell co-culture: cytokine release by alloreactive CD8 T cells; assay type: cell-based, mouse; details: cold stored (CIT) and treated ECs
Excerpt: EC/T cell co-culture: Using the genetically modified and pharmacological inhibitors the inventors will dissect the impact of EC mito morphology manipulation on T cell activation/co-stimulation. These studies will focus on MCECs given the availability of reagents and ability to generate alloreactive CD8 T cells as previously published.
Allogenic CD8 T cells will be generated. In brief, C57Bl/6 mice will be inoculated with MCECs i.p. and 3 weeks later spleens will be harvested and CD8 T cells isolated using bead isolation techniques. These MCEC alloreactive CD8 T cells will then be co-cultured with MCECs in the normoxic and CIT models.

MCECs = assay: mitoSOX staining of mito ROS after CIT; assay type: cell-based, mouse; details: CIT-induced ROS
Experimental: Hypoxic cold storage and reperfusion injury culture model: A modified cell culture model that simulates the IR process of organ Tx will be used. […] Cells will then be sealed in a hypoxic chamber filled with nitrogen at 4° C. After CIT, cells will undergo simulated reperfusion by removing the preservation solution and reintroducing fresh DMEM containing 10% FBS.

Q: What does the source list for COc1cc(-n2c(S)nc3ccccc3c2=O)c(Cl)cc1Cl [Mdivi-1]?
A: adverse side effects [1]: no detectable adverse side effects; cardioprotection from focal IRI (focal cardiac ischemia): provides protection from IRI; also recorded: promote cardioprotective effects; cardioprotection from focal IRI (focal cardiac ischemia; listed as Mdivi1): protect both myocardium and microvasculature

Q: With CC(=O)N[C@@H](CS)C(=O)O [NAC, N-Acetyl Cysteine] as the compound, how does the “Granzyme B (GrB) production by co-cultured alloreactive CD8 T cells” value [2] read?
A: Its value is “has no impact; also recorded: no significant effect; also recorded: do not decrease Granzyme-B to the extent of DRP-KD”.

Q: What about the “IFN-gamma production by co-cultured alloreactive CD8 T cells” value [2] of the same compound?
A: Its value is “has no impact; also recorded: no significant effect”.

Q: What about the “mito ROS (mitoSox)” value (MCECs) of the same compound?
A: Its value is “completely abrogated ROS”.

— patent publication US11344025B2, “Organ preconditioning formulation with mitochondrial elongating agents” (MUSC FOUNDATION FOR RESEARCH DEVELOPMENT, priority 2017, dated 2022)
